Assay results as given in ChEMBL document CHEMBL1909046, “DrugMatrix in vitro pharmacology data”.

Legend:
[1] = target: T1, Neuropeptide Y receptor type 2 (Homo sapiens, UniProt P49146); type: cell membranes, Membrane; conditions: kan-ts; further: in other assays of this panel Not Active means under 50% inhibition at 10 µM
T1 sequence (P49146 whole entry): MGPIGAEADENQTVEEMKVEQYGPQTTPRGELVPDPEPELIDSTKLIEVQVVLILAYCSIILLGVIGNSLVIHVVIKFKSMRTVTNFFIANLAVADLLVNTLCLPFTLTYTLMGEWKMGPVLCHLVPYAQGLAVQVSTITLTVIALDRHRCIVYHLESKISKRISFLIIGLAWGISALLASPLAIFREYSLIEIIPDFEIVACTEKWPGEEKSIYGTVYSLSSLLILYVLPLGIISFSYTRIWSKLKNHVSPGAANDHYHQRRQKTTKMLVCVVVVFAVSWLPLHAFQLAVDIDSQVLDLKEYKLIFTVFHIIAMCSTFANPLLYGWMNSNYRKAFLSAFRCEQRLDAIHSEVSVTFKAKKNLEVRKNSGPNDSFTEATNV

[2] = target: 5-hydroxytryptamine receptor 1B (Rattus norvegicus, UniProt P28564); type: cell membranes, Wistar, Cerebral cortex, Membrane; further: in other assays of this panel Not Active means under 50% inhibition at 10 µM
[3] = target: Tyrosine-protein kinase Fyn (Homo sapiens, UniProt P06241); test: biochemical; type: cell-based, Insect cells;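 further: enzymatic inhibition of Fyn kinase activity measured with Poly(Glu:Tyr) as the phosphorylation substrate; in other assays of this panel Not Active means under 50% inhibition at 10 µM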
Interstitial collagenase = target: T2, Interstitial collagenase (Homo sapiens, UniProt P03956); type: tissue-based, Rheumatoid synovial fibroblasts;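 further: MMP-1 enzyme inhibition assay using a peptide substrate; in other assays of this panel Not Active means under 50% inhibition at 10 µM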
T2 sequence (P03956 whole entry): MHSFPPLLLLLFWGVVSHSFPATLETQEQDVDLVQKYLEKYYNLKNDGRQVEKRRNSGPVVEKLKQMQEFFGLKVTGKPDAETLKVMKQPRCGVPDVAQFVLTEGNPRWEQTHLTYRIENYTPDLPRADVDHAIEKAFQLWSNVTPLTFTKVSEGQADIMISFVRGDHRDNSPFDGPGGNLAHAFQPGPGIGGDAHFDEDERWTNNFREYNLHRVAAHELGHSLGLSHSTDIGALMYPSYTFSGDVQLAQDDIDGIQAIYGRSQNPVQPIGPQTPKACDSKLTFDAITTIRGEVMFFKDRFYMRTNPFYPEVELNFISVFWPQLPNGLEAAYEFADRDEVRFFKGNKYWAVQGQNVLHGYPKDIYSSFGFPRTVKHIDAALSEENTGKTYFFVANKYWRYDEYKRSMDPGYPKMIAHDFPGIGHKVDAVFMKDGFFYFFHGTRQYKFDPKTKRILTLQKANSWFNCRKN

[4] = target: Prostaglandin G/H synthase 1 (Homo sapiens, UniProt P23219); test: biochemical; type: tissue-based, Platelet; conditions: platelet
[5] = DRUGMATRIX: GABAA, Flunitrazepam, Central radioligand binding (ligand: [3H] Flunitrazepam); type: cell membranes, Rattus norvegicus, Wistar, Brain, Membrane; conditions: Not Active = under 50% inhibition at 10 µM
[6] = target: Protein kinase C alpha type (Homo sapiens, UniProt P17252); type: cell-based; conditions: sf9

Chain of 5-hydroxytryptamine receptor 1B (P28564 whole entry): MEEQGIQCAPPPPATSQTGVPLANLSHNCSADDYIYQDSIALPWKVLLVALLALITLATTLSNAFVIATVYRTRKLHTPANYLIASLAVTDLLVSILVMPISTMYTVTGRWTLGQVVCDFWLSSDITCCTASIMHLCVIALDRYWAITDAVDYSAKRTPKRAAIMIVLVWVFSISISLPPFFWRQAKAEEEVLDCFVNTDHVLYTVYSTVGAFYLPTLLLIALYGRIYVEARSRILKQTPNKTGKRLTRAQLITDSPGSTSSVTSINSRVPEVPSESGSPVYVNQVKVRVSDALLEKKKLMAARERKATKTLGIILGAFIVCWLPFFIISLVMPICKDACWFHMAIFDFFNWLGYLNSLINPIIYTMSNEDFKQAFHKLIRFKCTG
Chain of Prostaglandin G/H synthase 1 (P23219 whole entry): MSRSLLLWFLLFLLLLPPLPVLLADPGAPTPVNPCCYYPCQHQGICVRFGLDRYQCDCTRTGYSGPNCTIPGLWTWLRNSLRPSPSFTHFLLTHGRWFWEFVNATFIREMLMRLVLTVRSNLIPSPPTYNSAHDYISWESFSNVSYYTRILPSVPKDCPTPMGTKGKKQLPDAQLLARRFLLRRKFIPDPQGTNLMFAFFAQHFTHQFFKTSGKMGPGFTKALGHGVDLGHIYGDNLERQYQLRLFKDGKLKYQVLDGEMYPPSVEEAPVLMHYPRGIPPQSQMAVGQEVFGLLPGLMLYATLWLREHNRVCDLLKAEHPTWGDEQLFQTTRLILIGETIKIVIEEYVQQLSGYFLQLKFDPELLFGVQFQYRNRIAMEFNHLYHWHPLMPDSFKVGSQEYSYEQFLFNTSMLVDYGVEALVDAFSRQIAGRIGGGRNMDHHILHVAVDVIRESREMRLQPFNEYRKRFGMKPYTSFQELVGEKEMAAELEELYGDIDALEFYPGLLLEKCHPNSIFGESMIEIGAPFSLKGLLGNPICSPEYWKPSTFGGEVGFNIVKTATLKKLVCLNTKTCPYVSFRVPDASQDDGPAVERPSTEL
Chain of Tyrosine-protein kinase Fyn (P06241 whole entry): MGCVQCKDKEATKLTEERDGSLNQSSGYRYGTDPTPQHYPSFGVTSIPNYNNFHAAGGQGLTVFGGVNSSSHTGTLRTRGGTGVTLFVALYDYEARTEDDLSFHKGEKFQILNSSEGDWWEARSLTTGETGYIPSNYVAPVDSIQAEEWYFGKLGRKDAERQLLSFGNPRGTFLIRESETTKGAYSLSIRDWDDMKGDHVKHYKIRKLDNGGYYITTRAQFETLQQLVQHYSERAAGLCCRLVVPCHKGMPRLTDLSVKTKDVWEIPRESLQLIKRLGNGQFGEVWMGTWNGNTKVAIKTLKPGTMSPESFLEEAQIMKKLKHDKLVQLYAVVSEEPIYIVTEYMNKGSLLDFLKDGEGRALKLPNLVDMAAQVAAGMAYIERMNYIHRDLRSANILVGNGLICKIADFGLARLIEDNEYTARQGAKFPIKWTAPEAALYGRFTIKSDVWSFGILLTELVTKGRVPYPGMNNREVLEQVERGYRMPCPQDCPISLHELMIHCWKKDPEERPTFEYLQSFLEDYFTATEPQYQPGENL

Compound	IC50 [1]	Ki [1]	IC50 [2]	Ki [2]	IC50 ([3]; insect cells)	Ki ([3]; insect cells)	IC50 (Interstitial collagenase)	Ki (Interstitial collagenase)	IC50 [4]	Ki [4]	IC50 [5]	Ki [5]	IC50 [6]	Ki [6]	IC50 ([3]; read-out: IC50) [µM]
THIMEROSAL	Not Active	Not Active	Not Active	Not Active	Not Active	Not Active	Not Active	Not Active	Not Active	Not Active	Not Active	Not Active	Not Active	Not Active	
C[C@]12CC[C@H]3[C@@H](CCC4=CC(=O)CC[C@@]43C)[C@@H]1CC[C@@H]2O [TESTOSTERONE]	Not Active		Not Active		Not Active		Not Active		Not Active		Not Active	Not Active	Not Active		
CO[C@H]1C[C@@H]2CC[C@@H](C)[C@@](O)(O2)C(=O)C(=O)N2CCCC[C@H]2C(=O)O[C@H]([C@H](C)C[C@@H]2CC[C@@H](O)[C@H](OC)C2)CC(=O)[C@H](C)/C=C(\C)[C@@H](O)[C@@H](OC)C(=O)[C@H](C)C[C@H](C)/C=C/C=C/C=C/1C [SIROLIMUS]	Not Active		Not Active		Not Active		Not Active		Not Active		Not Active	Not Active	Not Active		
CN(CCOc1ccc(CC2SC(=O)NC2=O)cc1)c1ccccn1 (stereo not drawn) [ROSIGLITAZONE]	Not Active		Not Active		Not Active		Not Active		Not Active		Not Active	Not Active	Not Active		
C=C(C)[C@H]1Cc2c(ccc3c2O[C@@H]2COc4cc(OC)c(OC)cc4[C@@H]2C3=O)O1 [ROTENONE]	Not Active		Not Active		Not Active		Not Active		Not Active		Not Active	Not Active	Not Active		
Nc1ccc(S(=O)(=O)Nc2nccs2)cc1 [SULFATHIAZOLE]	Not Active		Not Active		Not Active		Not Active		Not Active		Not Active	Not Active	Not Active		
COc1ccc(CN2CCNCC2)c(OC)c1OC [TRIMETAZIDINE]	Not Active		Not Active		Not Active		Not Active		Not Active		Not Active	Not Active	Not Active		
COc1cc(C(=O)NS(=O)(=O)c2ccccc2C)ccc1Cc1cn(C)c2ccc(NC(=O)OC3CCCC3)cc12 [ZAFIRLUKAST]	Not Active		Not Active		Not Active		Not Active		Not Active		Not Active	Not Active	Not Active		
CCCc1nn(C)c2c(=O)[nH]c(-c3cc(S(=O)(=O)N4CCN(C)CC4)ccc3OCC)nc12	Not Active		Not Active		Not Active		Not Active		Not Active		Not Active	Not Active	Not Active		
CN[C@@H]1[C@H](O)[C@H](NC)[C@H]2O[C@@]3(O)C(=O)C[C@@H](C)O[C@H]3O[C@@H]2[C@H]1O [SPECTINOMYCIN]	Not Active		Not Active		Not Active		Not Active		Not Active		Not Active	Not Active	Not Active		
CC(C)(C)NC[C@H](O)COc1nsnc1N1CCOCC1 [TIMOLOL]	Not Active		Not Active		Not Active		Not Active		Not Active		Not Active	Not Active	Not Active		
O=P(O)(O)C(O)(Cc1cccnc1)P(=O)(O)O [RISEDRONIC ACID]	Not Active		Not Active		Not Active		Not Active		Not Active		Not Active	Not Active	Not Active		
COc1ccc(/C=C/C(=O)Nc2ccccc2C(=O)O)cc1OC	Not Active		Not Active		Not Active		Not Active		Not Active		Not Active	Not Active	Not Active		
CCOC(N)=O	Not Active		Not Active		Not Active		Not Active		Not Active		Not Active	Not Active	Not Active		
C#CCN(C)[C@H](C)Cc1ccccc1 [SELEGILINE]	Not Active		Not Active		Not Active		Not Active		Not Active		Not Active	Not Active	Not Active		
Nc1ccc(S(=O)(=O)Nc2ncccn2)cc1 [SULFADIAZINE]	Not Active		Not Active		Not Active		Not Active		Not Active		Not Active	Not Active	Not Active		
C[C@@H]1C[C@H]2[C@@H]3CCC4=CC(=O)C=C[C@]4(C)C3=CC[C@]2(C)[C@H]1C(=O)CN1CCN(c2cc(N3CCCC3)nc(N3CCCC3)n2)CC1 [TIRILAZAD]	Not Active		Not Active				Not Active		Not Active		Not Active	Not Active	Not Active		1.12
COc1ncnc(NS(=O)(=O)c2ccc(N)cc2)c1OC [SULFADOXINE]	Not Active		Not Active		Not Active		Not Active		Not Active		Not Active	Not Active	Not Active		
STANNOUS FLUORIDE	Not Active	Not Active	Not Active	Not Active	Not Active	Not Active	Not Active	Not Active	Not Active	Not Active	Not Active	Not Active	Not Active	Not Active	
CC1=C(CC(=O)O)c2cc(F)ccc2/C1=C\c1ccc(S(C)(=O)=O)cc1 [EXISULIND]	Not Active		Not Active		Not Active		Not Active		Not Active		Not Active	Not Active	Not Active		
NC[C@H]1O[C@H](O[C@H]2[C@H](O)[C@@H](O[C@H]3O[C@H](CO)[C@@H](O)[C@H](N)[C@H]3O)[C@H](N)C[C@@H]2N)[C@H](N)C[C@@H]1O [TOBRAMYCIN]	Not Active		Not Active		Not Active		Not Active		Not Active		Not Active	Not Active	Not Active		
O=C(O)C(Cl)(Cl)Cl [TRICHLOROACETIC ACID]	Not Active		Not Active		Not Active		Not Active		Not Active		Not Active	Not Active	Not Active		
